Data: ChEMBL document CHEMBL6134931, “Lysine-Targeted Covalent Strategy Leading to the Discovery of Novel Potent PROTAC-Based PI3Kδ Degraders” (J Med Chem, 2025)
Active and inactive are the calls of the source. The calls are words filed in the database; no cut-off is given here.

Legend:
[1] = Toxicity in male nude mouse xenografted with human SU-DHL-6 cells assessed as animal death at 2 to 10 mg/kg, ip administered for 21 days; type: organism-based; details: in vivo, 504 h, dose 2-10 mg/kg, time 21 day
SU-DHL-6 [2] = experiment: Induction of apoptosis in human SU-DHL-6 cells assessed as viable cells at 1 uM incubated for 24 hrs by Annexin V-FITC/PI staining based flow cytometric analysis (reference value: 92.54 %); type: functional; details: read-out: Activity
SU-DHL-6 [3] = experiment: Induction of apoptosis in human SU-DHL-6 cells assessed as late apoptotic cells at 1 uM incubated for 24 hrs by Annexin V-FITC/PI staining based flow cytometric analysis (reference value: 4.75 %); type: functional
SU-DHL-6 [4] = experiment: Induction of apoptosis in human SU-DHL-6 cells assessed as necrotic cells at 0.01 uM incubated for 24 hrs by Annexin V-FITC/PI staining based flow cytometric analysis (reference value: 0.39 %); type: functional
[5] = target: von Hippel-Lindau disease tumor suppressor/Phosphatidylinositol 4,5-bisphosphate 3-kinase catalytic subunit beta isoform (Homo sapiens, UniProt P42338+P40337); experiment: PROTAC activity at VHL/p110beta in human SU-DHL-6 cells assessed as induction of p110beta degradation incubated for 24 hrs by Western blot analysis; type: cell-based
Sequence of von Hippel-Lindau disease tumor suppressor/Phosphatidylinositol 4,5-bisphosphate 3-kinase catalytic subunit beta isoform (P42338 whole entry, canonical isoform): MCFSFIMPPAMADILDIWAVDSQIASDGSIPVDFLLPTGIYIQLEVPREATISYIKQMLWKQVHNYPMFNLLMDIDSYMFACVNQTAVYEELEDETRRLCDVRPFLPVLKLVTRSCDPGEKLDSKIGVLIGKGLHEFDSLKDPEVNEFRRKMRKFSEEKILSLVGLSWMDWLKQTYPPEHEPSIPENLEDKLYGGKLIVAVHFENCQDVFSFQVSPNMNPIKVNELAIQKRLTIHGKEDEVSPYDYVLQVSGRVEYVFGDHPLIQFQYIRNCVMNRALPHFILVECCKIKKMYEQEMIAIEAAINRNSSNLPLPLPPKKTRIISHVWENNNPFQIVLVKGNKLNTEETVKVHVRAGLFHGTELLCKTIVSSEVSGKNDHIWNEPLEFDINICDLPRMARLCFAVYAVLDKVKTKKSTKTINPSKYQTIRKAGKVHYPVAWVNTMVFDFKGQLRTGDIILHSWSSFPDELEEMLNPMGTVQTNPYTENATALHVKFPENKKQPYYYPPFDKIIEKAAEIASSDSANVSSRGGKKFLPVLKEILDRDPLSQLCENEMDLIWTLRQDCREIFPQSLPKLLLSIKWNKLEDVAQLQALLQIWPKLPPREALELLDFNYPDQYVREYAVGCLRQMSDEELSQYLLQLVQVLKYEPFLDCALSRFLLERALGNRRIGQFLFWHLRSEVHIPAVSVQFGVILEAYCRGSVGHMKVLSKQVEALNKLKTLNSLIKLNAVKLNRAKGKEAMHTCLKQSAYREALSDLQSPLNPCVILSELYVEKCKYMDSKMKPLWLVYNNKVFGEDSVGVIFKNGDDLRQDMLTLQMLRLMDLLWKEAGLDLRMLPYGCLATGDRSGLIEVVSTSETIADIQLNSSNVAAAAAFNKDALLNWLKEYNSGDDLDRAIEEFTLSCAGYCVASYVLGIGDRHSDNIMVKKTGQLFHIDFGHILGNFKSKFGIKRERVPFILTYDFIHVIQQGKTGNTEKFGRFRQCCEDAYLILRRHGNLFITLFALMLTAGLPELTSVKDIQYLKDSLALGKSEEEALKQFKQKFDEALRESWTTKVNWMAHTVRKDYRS
Sequence of von Hippel-Lindau disease tumor suppressor/Phosphatidylinositol 4,5-bisphosphate 3-kinase catalytic subunit beta isoform (P40337 whole entry, canonical isoform): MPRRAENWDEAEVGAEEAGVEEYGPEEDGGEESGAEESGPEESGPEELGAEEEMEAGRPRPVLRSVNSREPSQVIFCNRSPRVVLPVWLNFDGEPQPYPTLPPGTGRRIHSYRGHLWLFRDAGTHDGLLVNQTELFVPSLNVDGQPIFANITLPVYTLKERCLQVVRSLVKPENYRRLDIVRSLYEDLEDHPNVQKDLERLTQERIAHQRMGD

SU-DHL-6 [6] = experiment: Cell cycle arrest in human SU-DHL-6 cells assessed as increase in G1 phase cells at 0.1 uM incubated for 24 hrs by PI staining based flow cytometric analysis; type: functional
Pfeiffer = experiment: Antiproliferative activity against human Pfeiffer cells assessed as cell growth inhibition incubated for 72 hrs by MTT assay; type: functional
[7] = Toxicity in male nude mouse xenografted with human SU-DHL-6 cells assessed as effect on body weight at 2 to 10 mg/kg, ip administered for 21 days; type: organism-based; details: in vivo, 504 h, dose 2-10 mg/kg, time 21 day
SU-DHL-6 [8] = experiment: Induction of apoptosis in human SU-DHL-6 cells assessed as early apoptotic cells at 0.01 uM incubated for 24 hrs by Annexin V-FITC/PI staining based flow cytometric analysis (reference value: 2.32 %); type: functional
SU-DHL-6 [9] = experiment: Induction of apoptosis in human SU-DHL-6 cells assessed as late apoptotic cells at 0.1 uM incubated for 24 hrs by Annexin V-FITC/PI staining based flow cytometric analysis (reference value: 4.75 %); type: functional
[10] = Toxicity in male nude mouse xenografted with human SU-DHL-6 cells assessed as effect on heart morphology at 2 to 10 mg/kg, ip administered for 21 days by H and E staining based analysis; type: organism-based; details: in vivo, 504 h, dose 2-10 mg/kg, time 21 day
[11] = Toxicity in male nude mouse xenografted with human SU-DHL-6 cells assessed as effect on liver morphology at 2 to 10 mg/kg, ip administered for 21 days by H and E staining based analysis; type: organism-based; details: in vivo, 504 h, dose 2-10 mg/kg, time 21 day
SU-DHL-6 [12] = experiment: Antitumor activity against human SU-DHL-6 cells xenografted in male nude mouse model assessed as reduction in Ki67 expression in tumor at 2 to 10 mg/kg, ip administered for 21 days by immunohistochemical analysis; type: functional, organism-based; details: dose 2-10 mg/kg, time 21.0 day
SU-DHL-6 [13] = experiment: Induction of apoptosis in human SU-DHL-6 cells assessed as late apoptotic cells at 0.01 uM incubated for 24 hrs by Annexin V-FITC/PI staining based flow cytometric analysis (reference value: 4.75 %); type: functional
SU-DHL-6 [14] = experiment: Induction of apoptosis in human SU-DHL-6 cells assessed as early apoptotic cells at 1 uM incubated for 24 hrs by Annexin V-FITC/PI staining based flow cytometric analysis (reference value: 2.32 %); type: functional
[15] = target: von Hippel-Lindau disease tumor suppressor/Phosphatidylinositol 4,5-bisphosphate 3-kinase catalytic subunit alpha isoform (Homo sapiens, UniProt P42336+P40337); experiment: PROTAC activity at VHL/p110alpha in human SU-DHL-6 cells assessed as induction of p110alpha degradation incubated for 24 hrs by Western blot analysis; type: cell-based
Sequence of von Hippel-Lindau disease tumor suppressor/Phosphatidylinositol 4,5-bisphosphate 3-kinase catalytic subunit alpha isoform (P42336 whole entry, canonical isoform): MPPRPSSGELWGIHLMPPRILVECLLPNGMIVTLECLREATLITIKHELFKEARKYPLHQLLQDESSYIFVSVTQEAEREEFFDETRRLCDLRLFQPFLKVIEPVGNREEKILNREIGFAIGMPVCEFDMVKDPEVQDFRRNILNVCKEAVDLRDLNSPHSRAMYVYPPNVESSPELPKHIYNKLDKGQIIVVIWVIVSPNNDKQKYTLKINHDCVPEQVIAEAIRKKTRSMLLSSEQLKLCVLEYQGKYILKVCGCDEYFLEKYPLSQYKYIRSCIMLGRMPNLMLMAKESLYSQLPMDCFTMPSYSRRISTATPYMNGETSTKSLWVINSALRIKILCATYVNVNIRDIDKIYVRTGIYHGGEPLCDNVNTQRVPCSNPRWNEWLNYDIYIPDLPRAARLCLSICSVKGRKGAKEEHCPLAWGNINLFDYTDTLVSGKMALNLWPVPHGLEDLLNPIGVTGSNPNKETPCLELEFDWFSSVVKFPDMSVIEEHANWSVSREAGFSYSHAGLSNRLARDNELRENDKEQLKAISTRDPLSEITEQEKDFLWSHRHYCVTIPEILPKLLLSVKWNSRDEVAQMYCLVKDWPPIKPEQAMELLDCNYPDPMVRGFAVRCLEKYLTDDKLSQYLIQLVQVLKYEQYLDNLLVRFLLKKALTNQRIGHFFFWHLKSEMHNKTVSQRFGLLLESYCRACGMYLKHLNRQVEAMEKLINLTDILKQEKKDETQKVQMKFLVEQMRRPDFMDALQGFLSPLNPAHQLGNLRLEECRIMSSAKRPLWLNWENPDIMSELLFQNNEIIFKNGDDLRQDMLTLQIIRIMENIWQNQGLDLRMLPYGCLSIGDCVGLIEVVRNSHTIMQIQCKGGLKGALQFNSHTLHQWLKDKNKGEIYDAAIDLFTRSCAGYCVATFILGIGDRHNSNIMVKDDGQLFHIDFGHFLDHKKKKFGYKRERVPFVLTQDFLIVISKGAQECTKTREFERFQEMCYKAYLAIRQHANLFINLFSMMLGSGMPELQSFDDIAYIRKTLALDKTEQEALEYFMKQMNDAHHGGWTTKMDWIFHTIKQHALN
Sequence of von Hippel-Lindau disease tumor suppressor/Phosphatidylinositol 4,5-bisphosphate 3-kinase catalytic subunit alpha isoform (P40337 whole entry, canonical isoform): as the sequence (P40337 whole entry, canonical isoform) above

SU-DHL-6 [16] = experiment: Inhibition of AKT phosphorylation in human SU-DHL-6 cells at 0.1 to 1 uM incubated for 24 hrs by Western blot analysis; type: cell-based; details: dose 0.1-1 µM
[17] = target: Phosphatidylinositol 4,5-bisphosphate 3-kinase catalytic subunit alpha isoform (Homo sapiens, UniProt P42336); experiment: Inhibition of PI3Kalpha (unknown origin) preincubated for 30 mins followed by ATP addition and measured after 1 hrs by ADP-Glo reagent based analysis
Sequence of Phosphatidylinositol 4,5-bisphosphate 3-kinase catalytic subunit alpha isoform (P42336 whole entry, canonical isoform): as the sequence (P42336 whole entry, canonical isoform) above

SU-DHL-6 [18] = experiment: Induction of apoptosis in human SU-DHL-6 cells assessed as necrotic cells at 1 uM incubated for 24 hrs by Annexin V-FITC/PI staining based flow cytometric analysis (reference value: 0.39 %); type: functional
[19] = Toxicity in male nude mouse xenografted with human SU-DHL-6 cells assessed as effect on spleen morphology at 2 to 10 mg/kg, ip administered for 21 days by H and E staining based analysis; type: organism-based; details: in vivo, 504 h, dose 2-10 mg/kg, time 21 day
SU-DHL-6 [20] = experiment: Induction of apoptosis in human SU-DHL-6 cells assessed as viable cells at 0.1 uM incubated for 24 hrs by Annexin V-FITC/PI staining based flow cytometric analysis (reference value: 92.54 %); type: functional; details: read-out: Activity
SU-DHL-6 [21] = experiment: Inhibition of AKT phosphorylation in human SU-DHL-6 cells at 1 to 10000 nM incubated for 24 hrs by Western blot analysis; type: cell-based; details: dose 1-10000 nM
Mus musculus = experiment: In vivo inhibition of AKT phosphorylation in male nude mouse xenografted with human SU-DHL-6 cells assessed as reduction in p-AKT expression level in tumor administered intraperitoneally for 21 days by Western blot analysis; type: functional, organism-based; details: dose 2-10 mg/kg, route ip, time 21.0 day
SU-DHL-6 [22] = experiment: Antitumor activity against human SU-DHL-6 cells xenografted in male nude mouse model assessed as tumor growth inhibition at 10 mg/kg, ip administered for 21 days relative to control; type: functional; details: SU-DHL-6, 504 h, time 21 day, read-out: TGI
SU-DHL-6 [23] = experiment: Antiproliferative activity against human SU-DHL-6 cells assessed as cell growth inhibition incubated for 72 hrs by MTT assay; type: functional
SU-DHL-6 [24] = experiment: Induction of autophagy in human SU-DHL-6 cells assessed as increase in LC3-II to LC3-I ratio at 1 to 100 nM incubated for 24 hrs by Western blot analysis; type: functional, cell-based; details: dose 1-100 nM
[25] = Toxicity in male nude mouse xenografted with human SU-DHL-6 cells assessed as effect on kidney morphology at 2 to 10 mg/kg, ip administered for 21 days by H and E staining based analysis; type: organism-based; details: in vivo, 504 h, dose 2-10 mg/kg, time 21 day
SU-DHL-6 [26] = experiment: Induction of apoptosis in human SU-DHL-6 cells assessed as necrotic cells at 0.1 uM incubated for 24 hrs by Annexin V-FITC/PI staining based flow cytometric analysis (reference value: 0.39 %); type: functional
SU-DHL-6 [27] = experiment: Induction of apoptosis in human SU-DHL-6 cells assessed as early apoptotic cells at 0.1 uM incubated for 24 hrs by Annexin V-FITC/PI staining based flow cytometric analysis (reference value: 2.32 %); type: functional
[28] = Stability of compound in PBS at pH 7.4 assessed as parent compound remaining measured after 48 hrs by HPLC analysis; type: physicochemical; details: read-out: Stability
SU-DHL-6 [29] = experiment: Cell cycle arrest in human SU-DHL-6 cells assessed as increase in G1 phase cells incubated for 24 hrs by PI staining based flow cytometric analysis; type: functional; details: dose 0.01-1 µM
SU-DHL-6 [30] = experiment: Induction of apoptosis in human SU-DHL-6 cells assessed as viable cells at 0.01 uM incubated for 24 hrs by Annexin V-FITC/PI staining based flow cytometric analysis (reference value: 92.54 %); type: functional; details: read-out: Activity
SU-DHL-6 [31] = experiment: Antitumor activity against human SU-DHL-6 cells xenografted in male nude mouse model assessed as tumor growth inhibition at 2 mg/kg, ip administered for 21 days relative to control; type: functional; details: SU-DHL-6, 504 h, time 21 day, read-out: TGI
[32] = target: Phosphatidylinositol 4,5-bisphosphate 3-kinase catalytic subunit beta isoform (Homo sapiens, UniProt P42338); experiment: Inhibition of PI3Kbeta (unknown origin) preincubated for 30 mins followed by ATP addition and measured after 1 hrs by ADP-Glo reagent based analysis
Sequence of Phosphatidylinositol 4,5-bisphosphate 3-kinase catalytic subunit beta isoform (P42338 whole entry, canonical isoform): as the sequence (P42338 whole entry, canonical isoform) above

Question: For COc1ncc(-c2ccc3ncnc(N[C@H]4CCN(C(=O)C5CCN(CCCCCCCCCC(=O)N[C@H](C(=O)N6C[C@H](O)C[C@H]6C(=O)N[C@@H](C)c6ccc(-c7scnc7C)cc6)C(C)(C)C)CC5)C4)c3n2)cc1C(=O)Oc1ccccc1, which Activity [1] is on record?
Answer: Non-toxic

Question: What about the viability at 1 µM (SU-DHL-6 [2]) of the same compound?
Answer: 33.9%

Question: What about the Activity (SU-DHL-6 [3]) of the same compound?
Answer: 50.74%

Question: What about the Activity (SU-DHL-6 [4]) of the same compound?
Answer: 0.51%

Question: What about the DC50 [5] of the same compound?
Answer: > 1000 nM

Question: What about the Activity (SU-DHL-6 [6]) of the same compound?
Answer: Active; More Potent Than 10 Um Idelalisib

Question: What about the GI50 (Pfeiffer) of the same compound?
Answer: 350 nM

Question: And the Activity [7]?
Answer: Non-toxic

Question: What about the Activity (SU-DHL-6 [8]) of the same compound?
Answer: 0.61%

Question: And the Activity (SU-DHL-6 [9])?
Answer: 7.11%

Question: And the Activity [10]?
Answer: Non-toxic

Question: And the Activity [11]?
Answer: Non-toxic

Question: What about the Activity (SU-DHL-6 [12]) of the same compound?
Answer: Active

Question: What about the Activity (SU-DHL-6 [13]) of the same compound?
Answer: 6.92%

Question: And the Activity (SU-DHL-6 [14])?
Answer: 14.65%

Question: And the DC50 [15]?
Answer: > 1000 nM

Question: What about the inhibition (SU-DHL-6 [16]) of the same compound?
Answer: Active

Question: And the IC50 [17]?
Answer: 589 nM

Question: And the Activity (SU-DHL-6 [18])?
Answer: 0.76%

Question: And the Activity [19]?
Answer: Non-toxic

Question: What about the viability at 0.1 µM (SU-DHL-6 [20]) of the same compound?
Answer: 91.5%

Question: What about the inhibition (SU-DHL-6 [21]) of the same compound?
Answer: Active

Question: What about the inhibition (Mus musculus) of the same compound?
Answer: Dose-dependent-effect

Question: What about the inhibition in vivo at 10 mg/kg (SU-DHL-6 [22]) of the same compound?
Answer: 73.3%

Question: And the GI50 (SU-DHL-6 [23])?
Answer: 170 nM

Question: And the Activity (SU-DHL-6 [24])?
Answer: Active

Question: What about the Activity [25] of the same compound?
Answer: Non-toxic

Question: And the Activity (SU-DHL-6 [26])?
Answer: 0.65%

Question: And the Activity (SU-DHL-6 [27])?
Answer: 0.75%

Question: What about the remaining at 48 h [28] of the same compound?
Answer: > 80%

Question: What about the Activity (SU-DHL-6 [29]) of the same compound?
Answer: Dose-dependent-effect

Question: And the viability at 0.01 µM (SU-DHL-6 [30])?
Answer: 91.7%

Question: And the inhibition in vivo at 2 mg/kg (SU-DHL-6 [31])?
Answer: 59.1%

Question: What about the IC50 [32] of the same compound?
Answer: > 10000 nM
